The results in this text go back to US6159994A, “Histamine H3 receptor ligands” (James Black Foundation, priority 1997, dated 2000).

A value given as a limit tells only on which side of the number the result lay.

Test [1] addresses T1, Histamine H3 receptor (guinea pig cortex membranes) (Cavia porcellus, UniProt Q9JI35).
T1 construct: The cortex was dissected, weighed and homogenised; from tissue; host or cells: guinea pig cerebral cortex membranes
Kind of test: Histamine H3 radioligand binding assay - guinea pig cortex. The settings on record: [3H]-R-α-methylhistamine 0.1 nM final, typical variance ±0.12 log units, read-out: pKI (binding assay) - cortex (converted). As to the method: (§1) Data are analysed using GraphPad prism and the general equation for a competition curve with variable Hill slope (nH). [formula] where
(§2) X is the log concentration of competing compound,
(§3) Y is the binding obtained at each concentration of X,
(§4) pIC50 is the […] required to compete for half of the specific binding.
The IC50 is converted to the KI using the Cheng Prusoff equation,
IC50 is the concentration of competitor required to compete for half the specific binding,
L is the radioligand concentration used,
KD is the equilibrium dissociation constant for the radioligand determined by saturation experiments.
Histamine H3 radioligand binding assay--guinea pig cortex
Male Dunkin Hartley guinea pigs (200-300 g) were used. The whole brain was removed and immediately placed in ice-cold 20 mM Hepes-NaOH buffer (pH7.4 at 21±3° C.). The cortex was dissected, weighed and homogenised in ice-cold 20 mM Hepes-NaOH buffer (pH7.4 at 21±3° C.) (50 ml/guinea-pig cortex) using a polytron (Kinematica AG; PT-DA 3020/2TS, 3×3s). The homogenate was centrifuged at 100×g for 5 min and the supernatants pooled and stored at 4° C. The pellets were rehomogenised in fresh ice-cold buffer (80 ml) and recentrifuged (100×g for 5 min). The supernatants were pooled and pellets rehomogenised and recentrifuged (100×g for 5 min). All supernatants were pooled and centrifuged at 39,800×g for 12 min at 4° C. The final pellet was resuspended in 20 mM Hepes-NaOH buffer (pH7.4 at 21±3° C.) to a tissue concentration of 7.5 mg.ml^-1, using a teflon-in-glass homogeniser.
These were essentially identical to those used for the guinea pig ileum myenteric plexus assay described above, except that the final assay concentration of [^3 H]-R-α-methylhistamine was 0.1 nM. Typical variance in this assay is ±0.12 log units.

The target of another test is T2, histamine H3 receptor (Cavia porcellus, UniProt Q9JI35).
T2 construct: the longitudinal muscle layer and adhering myenteric plexus was teased away; from tissue; host or cells: guinea pig ileum longitudinal muscle with adhering myenteric plexus (intact tissue strips)
T2 sequence (Q9JI35 whole entry): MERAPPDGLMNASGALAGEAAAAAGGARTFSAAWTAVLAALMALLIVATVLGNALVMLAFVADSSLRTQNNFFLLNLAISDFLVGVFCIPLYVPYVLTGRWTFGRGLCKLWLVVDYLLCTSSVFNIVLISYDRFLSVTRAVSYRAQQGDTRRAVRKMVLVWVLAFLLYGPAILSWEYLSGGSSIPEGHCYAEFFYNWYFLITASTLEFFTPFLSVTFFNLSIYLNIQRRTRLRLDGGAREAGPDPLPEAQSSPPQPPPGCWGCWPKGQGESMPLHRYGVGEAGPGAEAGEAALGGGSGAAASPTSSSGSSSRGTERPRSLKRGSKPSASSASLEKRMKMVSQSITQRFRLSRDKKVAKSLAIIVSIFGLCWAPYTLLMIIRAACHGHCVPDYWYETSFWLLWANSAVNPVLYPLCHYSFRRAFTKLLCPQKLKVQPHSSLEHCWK
As to the kind of experiment: Guinea pig ileal longitudinal muscle, myenteric plexus functional assay (antagonism of R-(α)-methylhistamine inhibition of electrically-stimulated contraction). Type of test: cell-based. Particulars: guinea pig ileum; antagonist affinity from rightward shift of R-(α)-methylhistamine E/[A] curves (Schild); typical variance ±0.15 log units; read-out: pKB (functional assay) - ileum (converted). As to the method:
The biological activity of the compounds of the examples was measured using the ileal longitudinal muscle, myenteric plexus assay described by Paton and Aboo Zar (J. Physiol. 1968, 194, 13-33). Male Dunkin-Hartley guinea pigs (250-300 g) were employed. Briefly, a 50 cm portion of ileum proximal to the caecum was removed, after discarding the terminal 20 cm. Ileal segments (3 cm) were cleaned by passing Krebs-Henseleit buffer containing 3 μM mepyramine gently through the ileum using a Pasteur pipette (size: 13.8 cm length, 0.65 cm diameter). To avoid unnecessary damage to the tissue, Krebs-Henseleit buffer was passed through the ileal segment, while it was lying horizontally on a petri dish. Therefore, the ileum was not over-distended and the buffer flowed through with ease. Each segment was then passed over a Pasteur pipette and the longitudinal muscle layer and adhering myenteric plexus was teased away using moist cotton wool, by stroking tangentially away from the mesenteric attachment. The tissues were suspended in 20 ml organ baths containing Krebs-Henseleit buffer at 37±1° C. and gassed with […]. The tissues were ligated to two parallel stainless steel wires, situated between two platinum electrodes (0.76 cm length, 0.06 cm diameter). All measurements were recorded isometrically (Grass FTO3 transducer). Following an initial loading tension of 1 g, the tissues were stimulated with electrical pulses at a frequency of 0.1 lHz and a pulse duration of 0.5 msec, as described by Kosterlitz & Watt (Br. J. Pharmacol. 1968, 266-276). Initially, the tissues were stimulated at supramaximal (1.3 fold times maximal) voltage for a period of 30 min and then the tissues were washed and re-stimulated.A "sighter dose" of the selective histamine H3 -receptor agonist, R-(α)-methylhistamine (0.3 μM) (Arrang el al. Nature, 1987, 117-123), was administered. Upon generation of response, the "sighter dose" was removed from the tissues by "washout" (6 washes over 60 min) and during this period the electrical stimulation was switched off. The tissues were then re-stimulated and allowed to stabilise prior to the addition of drug treatments, which were allocated on a randomised block basis to the organ baths. Following the incubation period, a single cumulative E/[A] curve was obtained. The experimental E/[A] curve data was expressed as the percentage inhibition of the peak height of electrically-stimulated contraction. Antagonist affinity values were calculated from the degree of rightward shift of the R-(α)-methylhistamine E/[A] curves using Schild's methods (Arunlakshana & Schild Br. J. Pharmacol, 1959, 48-58). Typical variance in this assay is ±0.15 log units.

For test [2], the target named is T3, Histamine H3 receptor (guinea pig ileum longitudinal muscle myenteric plexus membranes) (Cavia porcellus, UniProt Q9JI35).
T3 construct: Guinea pig ileum longitudinal muscle myenteric plexus membranes; from tissue; host or cells: guinea pig ileum longitudinal muscle myenteric plexus membranes
T3 sequence (Q9JI35 whole entry): as above
Kind of test: Histamine H3 radioligand binding assay - guinea pig ileum. Particulars: [3H]-R-α-methylhistamine (50 μl; 3 nM), 165 min, 21±3° C., pH7.4, typical variance ±0.12 log units, read-out: pKI (binding assay) - ileum (converted). As to the method:
Histamine H3 radioligand binding assay--guinea pig ileum
Male Dunkin Hartley guinea pigs (200-300 g) were used. The small intestine was rapidly removed (cut ^- 5 cm from caecum and 5 cm from stomach) and placed in ice-cold 20 mM Hepes-NaOH buffer (pH7.4 at 21±3° C.). The tissue was cut into ^- 10 cm segments, flushed through with ice-cold 20 mM Hepes-NaOH buffer and placed in a beaker containing fresh buffer at 4° C. 10 cm segments of ileum were threaded onto a glass pipette and the longitudinal muscle myenteric plexus was peeled away from the circular muscle using damp cotton-wool. Longitudinal muscle myenteric plexus was immediately placed in ice-cold Viaspan® solution (^~ 100 ml for tissue from 3 guinea pigs) and placed in the refrigerator for 24 hours.
Pre-soaked tissue was weighed and minced with scissors. The tissue was then homogenised in Viaspan® using a polytron (Kinematica AG; PT-DA 3020/2TS, 3×^- 1-2s). 50 ml of 500 mM Tris HCl (pH6.9 at 21±3° C.) was added to the tissue and the mixture centrifuged at 39,800×g for 12 min at 4° C. The supernatant was discarded and rehomogenised in 100 ml ice-cold 20 mM Hepes-NaOH buffer (pH7.4 at 21±3° C.) using a teflon-in-glass homogeniser (setting 10; 3×). The homogenate was recentrifuged at 39,800×g and the pellet resuspended in 20 mM Hepes-NaOH buffer (pH7.4 at 21±3° C.), to a tissue concentration of 50 mg.ml^-1, using a polytron (Brinkman, PT10, 3×^~1 s).
Guinea pig ileum longitudinal muscle myenteric plexus membranes (400 μl) were incubated for 165 min at 21±3° C. in a final volume of 500 μl with 20 mM Hepes-NaOH buffer containing [^3 H]-R-α-methylhistamine (50 μl; 3 nM) and competing compound. Total and non-specific binding of [^3 H]-R-α-methylhistamine were defined using 50 μl of buffer and 50 μl of 10 μM thioperamide, respectively. The assay was terminated by rapid filtration through Whatman GF/B filters, presoaked (2 hr) in 0.1% polyethyleneimine, using a Brandell Cell Harvester. The filters were washed (3×3 ml) with ice-cold 50 mM Tris-HCl (pH6.9 at 21±3° C.), transferred into scintillation vials, 5 ml liquid scintillation cocktail was added and after 4 hours the bound radioactivity was determined by counting (4 min) in a Beckman liquid scintillation counter.
as §1, §2, §3, §4
The IC50 is converted to the KI using the Cheng Prusoff equation, […]
KD is the equilibrium dissociation constant for the radioligand determined by saturation experiments. […]

T1 sequence (Q9JI35 whole entry): as above

`O=S1(=O)NC(Cc2ccc(Cl)cc2)CN1CCCCCc1c[nH]cn1` (centres unmarked) [Example 1, 4-(4-chlorophenyl)methyl-2-(5-(4-imidazolyl)pentyl)-1,2,5-thiadiazolidine-1,1-dioxide]: the values for the Ki in test [1] and in test [2] were 46.8 nM and 42.7 nM, respectively. Besides, the Kb on histamine H3 receptor was 123 nM.
In the case of `O=C1CNS(=O)(=O)N1CCCc1c[nH]cn1` [Example 4, 2-(3-(4-imidazolyl)propyl)-1,2,5-thiadiazolidin-3-one-1,1-dioxide], the Ki in test [1] was 115 nM. At histamine H3 receptor, the Kb was 1780 nM.
Turning to `C[C@H]1CN(CCc2c[nH]cn2)[S+]([O-])N1` (stereo partly drawn) [Example 6, 2-(4-imidazolyl)ethyl-4(S)-methyl-1,2,5-thiadiazolidine-1-oxide], the Ki in test [1] is 43.7 nM; in test [2], 1660 nM. In addition, the Kb on histamine H3 receptor was 891 nM.
For `O=C1CNS(=O)(=O)N1CCCCc1c[nH]cn1` [Example 8, 2-(4-(4-imidazolyl)butyl)-1,2,5-thiadiazolidin-3-one-1,1-dioxide], the Ki in test [1] was 501 nM. Further, the Kb on histamine H3 receptor is 2400 nM.
As for `O=S1(=O)NCCN1CCCc1c[nH]cn1` [Example 3, 2-(3-(4-imidazolyl)propyl)-1,2,5-thiadiazolidine-1,1-dioxide], the Ki is 2.57 nM in test [1] and 13.5 nM in test [2]. Also, at histamine H3 receptor, the Kb was 355 nM.
As to `O=S1(=O)NCCN1CCc1c[nH]cn1` [Example 2, 2-(2-(4-imidazolyl)ethyl)-1,2,5-thiadiazolidine-1,1-dioxide], the Ki in test [1] was 4170 nM. On histamine H3 receptor, the Kb was 240 nM.
In the same order, the values of `O=C1C(Cc2ccc(Cl)cc2)NS(=O)(=O)N1CCCCc1c[nH]cn1` (centres unmarked) [Example 7, 2-(4-(4-imidazolyl)butyl)-4-(4-chlorophenyl)methyl-1,2,5-thiadiazolidin-3-one-1,1-dioxide] are 0.513 nM and 44.7 nM.
For the compound `O=S1(=O)N(CCCc2c[nH]cn2)CCN1Cc1ccccc1` [Example 5, 5-benzyl-2-(3-(4-imidazolyl)propyl)-1,2,5-thiadiazolidine-1,1-dioxide], the Ki in test [1] is 6310 nM; in test [2], 2950 nM. Besides, at histamine H3 receptor, the Kb was greater than 10000 nM.
